From patent publication US11617850B2, “Delivery systems and methods for electric plasma synthesis of nitric oxide” (The General Hospital Corporation, priority 2016, dated 2023)

Assays:
[1] = tested on: mice (C57BL6 male WT); assay: Mice breathing air or electrically generated 50 ppm NO in air for 28 days; assay type: in vivo; conditions: 50 ppm NO in air
Source text: A second chamber 802 was supplied with 50 ppm of NO gas in air, generated by a spark plug generator using platinum-iridium electrodes and subsequently scavenged using 75 g Ca(OH). A plurality of mice (C57BL6 male WT) breathed the NO laden air for the same 28 day period. During the 28 day test, humidity, CO2, O2, NO, and NO2 were monitored intermittently.
Throughout the 28 day test, the mice were weighed in weekly intervals to track a change in the body weight of the mice throughout the 28 day test. […] Once the 28 day test was complete, lung specimens from the mice were analyzed using a high resolution magnetic sector field inductively coupled mass spectrometer (Thermo Fisher, Bremen, Germany).

[2] = tested on: awake sheep with acute pulmonary hypertension, due to U46619 infusion; assay: Inhaled electrically generated NO in awake sheep with acute pulmonary hypertension due to U46619 infusion; assay type: in vivo
Source text: Animal studies were approved by the Institutional Animal Care and Use Committee of Massachusetts General Hospital (Boston, Mass.). The NO generator 102 of the NO generation system 100 was coupled to a tracheostomy tube in a spontaneously breathing awake 35 kg sheep.
To induce pulmonary hypertension, a potent pulmonary vasoconstrictor U46619 (Cayman Chemical, Ann Arbor, Mich.), the analog of the endoperoxide prostaglandin H2, was infused intravenously to increase pulmonary arterial pressure (PAP) to 30 mmHg. The pulmonary arterial pressure and PAP was continuously monitored using a Gould 6600 amplifier system (Gould Electronics, Inc., Eastlake, Ohio).
In turn, the electric plasma discharge of the electrodes supplied NO gas to the spontaneously breathing awake sheep during those 0.8 seconds.
Turning to FIGS. 11 and 12, the above-described operation of the NO system 200 (i.e., triggering the NO generator 102 for approximately 0.8 second during early inspiration, for example, 20 milliseconds after commencement of inspiration) was implemented during a NO exposure time 700. Prior to and following the NO exposure time 700, a baseline was generated. The NO generator 102 was configured to output approximately 20 ppm of NO for three different runs (FIG. 11) and was configured to output 5 ppm of NO for another run (FIG. 12).
In addition to PAP, the arterial oxygen saturation was also measured as a function of time in the awake sheep. […] Lastly, the relative arterial oxygen saturation was calculated as a function of time for all four periods of NO inhalation.

Q: For `[N]=O` [NO, nitric oxide], which “lung histology (H&E staining of larynx, trachea, main bronchus, lung tissues)” value [1] is on record?
A: no evidence of lung inflammation or pathology

Q: And the “iridium and platinum in lung specimens versus control mice (ICP mass spectrometry)” value ([1]; platinum-iridium electrodes, Ca(OH) scavenger)?
A: no detectable difference

Q: What about the “body weight gain versus mice breathing air” value ([1]; weighed weekly) of the same compound?
A: did not differ

Q: And the “arterial oxygen saturation (SaO2) during the NO exposure time” value ([2]; 5 ppm NO inhaled)?
A: generally constant

Q: And the “effect on pulmonary artery pressure (PAP) during the NO exposure time” value ([2]; 5 ppm NO inhaled, one run)?
A: does not show a measurable effect

Q: What about the “arterial oxygen saturation (SaO2) during the NO exposure time” value ([2]; 20 ppm NO inhaled) of the same compound?
A: increases

Q: And the “improvement of relative arterial oxygen saturation during the NO exposure time” value ([2]; 20 ppm NO inhaled, three trials)?
A: approximately 10%
